Counter-ions that a name gives are not always drawn.
Key:
Assay in all cases: two-electrode voltage clamp, oocytes, G
Type in all cases: cell-based
[1] = target: T1, human M channel (hKV7.2/7.3) (Homo sapiens, UniProt O43525+O43526); details: 100 µM; pH 7.4, room temperature; not significant
[2] = target: T1, human M channel (hKV7.2/7.3)
[3] = target: Shaker KV channel (Shaker H4, Δ6-46; "WT Shaker KV channel") (Drosophila melanogaster, UniProt P08510, DEL6-46/L358R/R362Q)
[4] = target: Shaker KV channel (Shaker H4, Δ6-46; "WT Shaker KV channel") (Drosophila melanogaster, UniProt P08510, DEL6-46/R362Q)

T1 sequence (O43526 whole entry): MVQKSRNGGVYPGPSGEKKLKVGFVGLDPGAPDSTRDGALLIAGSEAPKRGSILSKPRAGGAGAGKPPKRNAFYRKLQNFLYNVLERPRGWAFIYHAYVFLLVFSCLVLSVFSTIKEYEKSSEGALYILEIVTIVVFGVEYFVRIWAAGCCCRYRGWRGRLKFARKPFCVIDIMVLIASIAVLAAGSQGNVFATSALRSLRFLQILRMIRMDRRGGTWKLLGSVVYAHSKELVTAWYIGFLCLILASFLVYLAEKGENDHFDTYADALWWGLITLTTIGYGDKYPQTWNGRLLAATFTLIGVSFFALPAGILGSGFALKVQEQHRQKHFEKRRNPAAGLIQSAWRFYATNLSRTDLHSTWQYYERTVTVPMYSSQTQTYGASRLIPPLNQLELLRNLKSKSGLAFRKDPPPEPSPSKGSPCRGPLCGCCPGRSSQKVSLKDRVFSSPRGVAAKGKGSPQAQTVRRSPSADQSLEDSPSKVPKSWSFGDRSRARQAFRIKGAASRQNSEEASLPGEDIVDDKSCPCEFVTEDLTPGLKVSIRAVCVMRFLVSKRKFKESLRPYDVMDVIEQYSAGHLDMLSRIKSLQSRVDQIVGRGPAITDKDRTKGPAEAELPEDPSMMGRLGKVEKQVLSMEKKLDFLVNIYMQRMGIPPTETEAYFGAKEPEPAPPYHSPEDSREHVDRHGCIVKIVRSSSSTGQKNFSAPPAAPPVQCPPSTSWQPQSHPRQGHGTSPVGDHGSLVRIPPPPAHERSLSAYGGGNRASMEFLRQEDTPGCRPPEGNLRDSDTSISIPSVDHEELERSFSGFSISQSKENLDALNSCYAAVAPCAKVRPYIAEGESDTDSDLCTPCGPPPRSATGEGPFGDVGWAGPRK
T1 sequence (O43525 whole entry): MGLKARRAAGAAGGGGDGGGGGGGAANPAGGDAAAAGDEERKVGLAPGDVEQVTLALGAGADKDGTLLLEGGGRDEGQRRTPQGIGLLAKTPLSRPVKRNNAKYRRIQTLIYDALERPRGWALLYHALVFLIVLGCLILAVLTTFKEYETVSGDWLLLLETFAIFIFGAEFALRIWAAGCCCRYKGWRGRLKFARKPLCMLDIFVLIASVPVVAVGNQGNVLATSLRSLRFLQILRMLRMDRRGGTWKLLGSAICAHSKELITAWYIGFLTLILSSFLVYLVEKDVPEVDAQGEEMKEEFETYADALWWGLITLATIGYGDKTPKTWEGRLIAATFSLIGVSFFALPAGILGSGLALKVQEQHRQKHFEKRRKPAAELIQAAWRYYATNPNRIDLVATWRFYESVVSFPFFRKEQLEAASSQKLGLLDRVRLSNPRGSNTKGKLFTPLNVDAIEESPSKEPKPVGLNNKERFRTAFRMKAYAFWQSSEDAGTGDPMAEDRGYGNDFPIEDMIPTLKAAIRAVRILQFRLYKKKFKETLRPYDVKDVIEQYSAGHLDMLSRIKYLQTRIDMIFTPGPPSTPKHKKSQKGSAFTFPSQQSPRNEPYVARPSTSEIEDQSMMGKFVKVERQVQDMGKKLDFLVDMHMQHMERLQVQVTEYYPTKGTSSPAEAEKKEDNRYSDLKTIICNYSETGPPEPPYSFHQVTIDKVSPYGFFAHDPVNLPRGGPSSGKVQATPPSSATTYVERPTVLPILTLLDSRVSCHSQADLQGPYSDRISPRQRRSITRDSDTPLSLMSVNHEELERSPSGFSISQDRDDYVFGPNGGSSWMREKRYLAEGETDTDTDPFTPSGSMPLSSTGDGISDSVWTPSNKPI

SMILES	ΔV ± SEM [1]	EC50 [2] [µM]	EC50 [3] [µM]	EC50 [4] [µM]
CC(C)c1ccc2c(c1)CC[C@H]1[C@](C)(CNS(C)(=O)=O)CCC[C@]21C [Wu110, N-(((1R,4aS,10aR)-7-isopropyl-1,4a-dimethyl-1,2,3,4,4a,9,10,10a-octahydrophenanthren-1-yl)methyl)methanesulfonamide]	–1.5 ± 0.4 mV	–	–	–
CC(C)c1ccc2c(c1)CC[C@H]1[C@](C)(COS(=O)(=O)O)CCC[C@]21C [Wu161, ((1R,4aS,10aR)-7-isopropyl-1,4a-dimethyl-1,2,3,4,4a,9,10,10a-octahydrophenanthren-1-yl)methyl hydrogen sulfate]	–	62 ± 15	70	36
C[C@@]1(COS(=O)(=O)O)CCC[C@]2(C)c3cc(Cl)c(Cl)c(Cl)c3CC[C@@H]12 [Wu181, ((1R,4aS,10aR)-6,7,8-trichloro-1,4a-dimethyl-2,3,4,9,10,10a-hexahydrophenanthrene-1-yl)methyl hydrogen sulfate]	–	12 ± 3	–	–
